Data taken from ChEMBL document CHEMBL1201862, “PubChem BioAssay data set” (2004).
Where “and” joins values, the source holds several entries; their conditions need not be identical. Equal values may be shown once.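 Cultured in 96-well plates, cells were exposed to test compound for 48 hours across five concentrations. Abbreviation: GI50, concentration required for 50% inhibition of growth.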 Calls of active or inactive are those of the source. No stated cut-off is given here; in the data, active = GI50 up to about 1.1 µM and inactive = higher.

How the values were obtained:
Experiment in all cases: inhibition of tumour cell growth, NCI panel, 48 h
[1] = test system: OVCAR-8
[2] = test system: TK-10
[3] = test system: SK-OV-3
[4] = test system: Malme-3M
[5] = test system: SK-MEL-2
[6] = test system: CAKI-1
[7] = test system: CCRF-CEM
[8] = test system: SK-MEL-28
[9] = test system: MOLT-4
[10] = test system: LOX IMVI
[11] = test system: HCT-15
[12] = test system: SK-MEL-5
[13] = test system: SNB-75
[14] = test system: EKVX
[15] = test system: COLO 205
[16] = test system: HCC 2998
[17] = test system: RPMI-8226
[18] = test system: NCI-H522
[19] = test system: OVCAR-5
[20] = test system: NCI-H460

| Structure (SMILES) | GI50 [1] | GI50 [2] | GI50 [3] | GI50 [4] | GI50 [5] | GI50 [6] | GI50 [7] | GI50 [8] | GI50 [9] | GI50 [10] | GI50 [11] [µM] | GI50 [12] | GI50 [13] | GI50 [14] | GI50 [15] | GI50 [16] | GI50 [17] | GI50 [18] | GI50 [19] | GI50 [20] |
| --- | --- | --- | --- | --- | --- | --- | --- | --- | --- | --- | --- | --- | --- | --- | --- | --- | --- | --- | --- | --- |
| Cc1cc(C)nc(NS(=O)(=O)c2ccc(NNC(=O)c3cccc4c(=O)c5ccccc5[nH]c34)cc2)n1 | 83.4 µM (inactive) | > 100 µM (inactive) | 55.5 µM (inactive) | 49.9 µM (inactive) | 0.0493 µM (active) | > 100 µM (inactive) | 35.4 µM (inactive) | 29.2 µM (inactive) | 49.8 µM (inactive) | 36 µM (inactive) | 48.8 | 52.1 µM (inactive) | 19.5 µM (inactive) | 23.1 µM (inactive) | > 100 µM (inactive) | 44.9 µM (inactive) | 57.5 µM (inactive) | 33.6 µM (inactive) | 21.5 µM (inactive) | 67.6 µM (inactive) |
| NC(=O)CCC(NC(=O)c1c2ccccc2nc2ccccc12)C(=O)O (centres undefined) | > 100 µM (inactive) | > 100 µM (inactive) | > 100 µM (inactive) | > 100 µM (inactive) | > 100 µM (inactive) | > 100 µM (inactive) | > 100 µM (inactive) | > 100 µM (inactive) | > 100 µM (inactive) | > 100 µM (inactive) | > 100 | > 100 µM (inactive) | > 100 µM (inactive) | > 100 µM (inactive) | > 100 µM (inactive) | > 100 µM (inactive) | > 100 µM (inactive) | > 100 µM (inactive) | > 100 µM (inactive) | > 100 µM (inactive) |
| COCCCNc1nc(N)c(C#N)c(C#N)c1C#N | > 10 µM (inactive) | > 10 µM (inactive) | > 10 µM (inactive) | > 10 µM (inactive) | > 10 µM (inactive) | > 10 µM (inactive) | 2.48 µM (inactive) | > 10 µM (inactive) | > 10 µM (inactive) | > 10 µM (inactive) | > 10 | > 10 µM (inactive) | > 10 µM (inactive) | > 10 µM (inactive) | > 10 µM (inactive) | > 10 µM (inactive) | > 10 µM (inactive) | > 10 µM (inactive) | > 10 µM (inactive) | > 10 µM (inactive) |
| COC(=O)C(C(=O)C(=O)Nc1nnc(S)[nH]1)c1csc(-n2nc(-c3ccccc3)cc2-c2ccccc2)n1 (centres undefined) | > 100 µM (inactive) | > 100 µM (inactive) | > 100 µM (inactive) | > 100 µM (inactive) | – | > 100 µM (inactive) | > 100 µM (inactive) | – | > 100 µM (inactive) | > 100 µM (inactive) | > 100 | – | 3.75 µM (inactive) | 33.3 µM (inactive) | > 100 µM (inactive) | > 100 µM (inactive) | > 100 µM (inactive) | > 100 µM (inactive) | > 100 µM (inactive) | > 100 µM (inactive) |
| COC(=O)c1cc(-c2cccn2C)c2c(c1C(=O)OC)c1ccccc1n2C | 56.9 µM (inactive) | > 100 µM (inactive) | > 100 µM (inactive) | > 100 µM (inactive) | > 100 µM (inactive) | – | – | 71.1 µM (inactive) | 3.13 µM (inactive) | 56 µM (inactive) | 22.4 | 44.3 µM (inactive) | 71.4 µM (inactive) | – | 32.9 µM (inactive) | 45.5 µM (inactive) | 43.7 µM (inactive) | 18.1 µM (inactive) | – | 39.8 µM (inactive) |
| O=[N+]([O-])c1cccc(-c2ccc([C@H]3CC(c4ccc(Cl)cc4)=NN3)o2)c1 | 12.3 µM (inactive) | 19.6 µM (inactive) | 28.8 µM (inactive) | 15.8 µM (inactive) | – | 26.1 µM (inactive) | 1.43 µM (inactive) | – | 0.891 µM (active) | – | 5.15 | 13.8 µM (inactive) | 14.7 µM (inactive) | 70 µM (inactive) | > 100 µM (inactive) | 16.6 µM (inactive) | 14.3 µM (inactive) | 21.2 µM (inactive) | 31.7 µM (inactive) | – |
| CCOC(=O)C(C)NC(=O)NC12CC3CC(CC(F)(C3)C1)C2 (centres undefined) | > 100 µM (inactive) | > 100 µM (inactive) | > 100 µM (inactive) | 63 µM (inactive) | > 100 µM (inactive) | – | 76.7 µM (inactive) | > 100 µM (inactive) | 62.1 µM (inactive) | > 100 µM (inactive) | – | 46 µM (inactive) | 65.3 µM (inactive) | > 100 µM (inactive) | 41.7 µM (inactive) | 31.8 µM (inactive) | 88.3 µM (inactive) | 65.2 µM (inactive) | > 100 µM (inactive) | > 100 µM (inactive) |
| CC(=O)OC1CCC2(C)C3CCC4(C)C(c5ccc(=O)oc5)CC5OC54C3CCC2(O)C1 (centres undefined) | 1.15 µM (inactive) | – | 4.49 µM (inactive) | 0.895 µM (active) | 4.86 µM (inactive) | 0.738 µM (active) | 0.631 µM (active) | 4.27 µM (inactive) | 0.348 µM (active) | 1.63 µM (inactive) | 1.9 | 0.714 µM (active) | 1.06 µM (active) | 0.887 µM (active) | 4.28 µM (inactive) | 2.98 µM (inactive) | 0.869 µM (active) | 0.53 µM (active) | 5.81 µM (inactive) | 0.579 µM (active) |
| Oc1ccc2ccccc2c1/N=N/c1ccccc1 | 56.1 µM (inactive) | 73.3 µM (inactive) | 53.3 µM (inactive) | > 100 µM (inactive) | > 100 µM (inactive) | > 100 µM (inactive) | > 100 µM (inactive) | > 100 µM (inactive) | > 100 µM (inactive) | > 100 µM (inactive) | > 100 | > 100 µM (inactive) | > 100 µM (inactive) | – | > 100 µM (inactive) | > 100 µM (inactive) | > 100 µM (inactive) | > 100 µM (inactive) and > 75.3 µM (inactive) | > 100 µM (inactive) | > 100 µM (inactive) |
| Cc1cn(C2CC(N)C(C(=O)NCC(=O)O)O2)c(=O)[nH]c1=O (centres undefined) | – | > 100 µM (inactive) | > 100 µM (inactive) | > 100 µM (inactive) | – | > 100 µM (inactive) | > 100 µM (inactive) | > 100 µM (inactive) | > 100 µM (inactive) | > 100 µM (inactive) | > 100 | > 100 µM (inactive) | > 100 µM (inactive) | > 100 µM (inactive) | > 100 µM (inactive) | > 100 µM (inactive) | > 100 µM (inactive) | > 100 µM (inactive) | > 100 µM (inactive) | > 100 µM (inactive) |
| CCOC(=O)C(NC(=O)c1ccccc1)(c1ccc(S(=O)(=O)Nc2onc(C)c2C)cc1)C(F)(F)F (centres undefined) | > 100 µM (inactive) | > 100 µM (inactive) | 0.495 µM (active) | > 100 µM (inactive) | > 100 µM (inactive) | > 100 µM (inactive) | > 100 µM (inactive) | > 100 µM (inactive) | > 100 µM (inactive) | > 100 µM (inactive) | > 100 | > 100 µM (inactive) | > 100 µM (inactive) | > 100 µM (inactive) | > 100 µM (inactive) | > 100 µM (inactive) | > 100 µM (inactive) | – | > 100 µM (inactive) | > 100 µM (inactive) |
| N#CN=C(NCCO)NCCO | > 100 µM (inactive) | – | > 100 µM (inactive) | > 100 µM (inactive) | > 100 µM (inactive) | > 100 µM (inactive) | > 100 µM (inactive) | > 100 µM (inactive) | > 100 µM (inactive) | > 100 µM (inactive) | > 100 | – | > 100 µM (inactive) | > 100 µM (inactive) | > 100 µM (inactive) | > 100 µM (inactive) | > 100 µM (inactive) | > 100 µM (inactive) | > 100 µM (inactive) | > 100 µM (inactive) |
| CON(C)c1nc(N(C)OC)nc(N(C)OC)n1 | > 10 µM (inactive) | > 10 µM (inactive) | > 10 µM (inactive) | > 10 µM (inactive) | > 10 µM (inactive) | > 10 µM (inactive) | > 10 µM (inactive) | > 10 µM (inactive) | > 10 µM (inactive) | > 10 µM (inactive) | > 10 | > 10 µM (inactive) | > 10 µM (inactive) | > 10 µM (inactive) | > 10 µM (inactive) | > 10 µM (inactive) | > 10 µM (inactive) | > 10 µM (inactive) | > 10 µM (inactive) | > 10 µM (inactive) |
| CCN1CCC(O)(C(C(=O)O)c2ccccc2)CC1 (centres undefined) | > 100 µM (inactive) | > 100 µM (inactive) | > 100 µM (inactive) | > 100 µM (inactive) | > 100 µM (inactive) | > 100 µM (inactive) | > 100 µM (inactive) | > 100 µM (inactive) | – | > 100 µM (inactive) | > 100 | > 100 µM (inactive) | > 100 µM (inactive) | > 100 µM (inactive) | > 100 µM (inactive) | > 100 µM (inactive) | > 100 µM (inactive) | > 100 µM (inactive) | > 100 µM (inactive) | > 100 µM (inactive) |
